PubChem BioAssay (NCI)
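Tested at 5 concentrations; 48 h exposure; 96-well plates; endpoints linearly interpolated, else capped at highest concentration. TGI marks complete inhibition of growth.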

How the values were obtained:
Test in all cases: NCI tumour cell line growth inhibition, 48 h
ACHN renal = system: ACHN renal
HCT-116 colon = system: HCT-116 colon
HOP-62 NSCLC = system: HOP-62 NSCLC
HT29 colon = system: HT29 colon
K-562 leukemia = system: K-562 leukemia
MALME-3M melanoma = system: MALME-3M melanoma
MDA-MB-435 = system: MDA-MB-435
MOLT-4 leukemia = system: MOLT-4 leukemia
NCI-H460 lung = system: NCI-H460 lung
NCI-H522 lung = system: NCI-H522 lung
OVCAR-4 ovarian = system: OVCAR-4 ovarian
OVCAR-5 ovarian = system: OVCAR-5 ovarian
RXF 393 renal = system: RXF 393 renal
SF-268 CNS = system: SF-268 CNS
SF-539 CNS = system: SF-539 CNS
SK-MEL-2 melanoma = system: SK-MEL-2 melanoma
SK-MEL-5 melanoma = system: SK-MEL-5 melanoma
SR leukemia = system: SR leukemia
TK-10 renal = system: TK-10 renal
UO-31 renal = system: UO-31 renal

| SMILES | TGI (ACHN renal) | TGI (HCT-116 colon) | TGI (HOP-62 NSCLC) | TGI (HT29 colon) | TGI (K-562 leukemia) | TGI (MALME-3M melanoma) | TGI (MDA-MB-435) | TGI (MOLT-4 leukemia) | TGI (NCI-H460 lung) | TGI (NCI-H522 lung) | TGI (OVCAR-4 ovarian) | TGI (OVCAR-5 ovarian) | TGI (RXF 393 renal) | TGI (SF-268 CNS) | TGI (SF-539 CNS) | TGI (SK-MEL-2 melanoma) | TGI (SK-MEL-5 melanoma) | TGI (SR leukemia) | TGI (TK-10 renal) | TGI (UO-31 renal) |
| --- | --- | --- | --- | --- | --- | --- | --- | --- | --- | --- | --- | --- | --- | --- | --- | --- | --- | --- | --- | --- |
| Cc1nc(-n2nc(-c3ccccc3)cc2-c2ccccc2)sc1C(=O)/C=C/c1ccc([N+](=O)[O-])cc1 | > 52 µM | 28.3 µM | > 94.4 µM | > 100 µM | > 70.6 µM | > 100 µM | 43.5 µM | 51.5 µM | > 69.3 µM | 66.1 µM | > 100 µM | > 100 µM | 49.3 µM | > 87.6 µM | 18.8 µM | > 100 µM | > 56.4 µM | 24.2 µM | > 66.8 µM | > 54 µM |
| COc1ccc2nc3cc([N+](=O)[O-])ccc3c(Nc3ccc(S(=O)(=O)Nc4ncccn4)cc3)c2c1 | > 71.8 µM | > 100 µM | > 100 µM | > 94.8 µM | > 88.2 µM | > 100 µM | > 100 µM | > 48.3 µM | > 100 µM | > 100 µM | > 100 µM | > 100 µM | > 100 µM | > 100 µM | > 100 µM | > 86.3 µM | > 100 µM | > 30.5 µM | > 100 µM | > 100 µM |
| [N-]=[N+]=Nc1c(-c2ccccc2)c(=O)n(-c2ccccc2)c2ccccc12 | > 100 µM | > 100 µM | > 100 µM | > 100 µM | > 100 µM | > 100 µM | > 100 µM | > 100 µM | > 100 µM | 97.1 µM | > 100 µM |  | > 100 µM | 62.3 µM | > 100 µM |  |  | > 100 µM | > 100 µM | > 100 µM |
| Cc1nc(C)c(N2CCN(S(N)(=O)=O)CC2)c(=O)[nH]1 | > 100 µM | > 100 µM | > 100 µM | > 100 µM | > 100 µM | > 100 µM | > 100 µM | > 100 µM | > 100 µM | > 100 µM | > 100 µM |  | > 100 µM | > 100 µM | > 100 µM |  | > 100 µM | > 100 µM | > 100 µM | > 100 µM |
| CC(=O)C1C(=O)C(C(C)=O)C2C3C=CC(C3)C12 (centres undefined) | > 100 µM | > 100 µM | > 100 µM | > 100 µM | > 100 µM | > 100 µM | > 100 µM | > 100 µM | > 100 µM | > 100 µM | > 100 µM | > 100 µM | > 100 µM | > 100 µM | > 100 µM | > 100 µM | > 100 µM | > 100 µM | > 100 µM | > 100 µM |
| COC(=O)[C@@H]1C[C@]2(Br)c3ccccc3N(S(=O)(=O)c3ccccc3)[C@@H]2N1C(=O)OC | > 100 µM | > 100 µM | > 100 µM | > 100 µM | > 100 µM | > 100 µM | > 100 µM | > 100 µM | > 100 µM | > 100 µM | > 100 µM | > 100 µM | 61.8 µM | > 100 µM | > 100 µM | > 100 µM | > 100 µM | > 100 µM | > 100 µM | > 100 µM |
| CC(C)=NOC(=O)OC[C@H]1O[C@@H](n2cnc3c(N)ncnc32)C(O)C1O (some centres undefined) | > 100 µM |  | > 100 µM | > 100 µM | > 100 µM | > 100 µM | > 100 µM | > 100 µM | > 100 µM | > 100 µM | > 100 µM | > 100 µM | > 100 µM | > 100 µM | > 100 µM | > 100 µM | > 100 µM | > 100 µM | > 100 µM | > 100 µM |
| c1cc(C2=NCCO2)c2ccsc2c1 | > 100 µM | > 100 µM | > 100 µM | > 100 µM | > 100 µM | > 100 µM | > 100 µM | > 100 µM | > 100 µM | > 100 µM | > 100 µM | > 100 µM | > 100 µM | > 100 µM | > 100 µM | > 100 µM | > 100 µM | > 100 µM | > 100 µM | > 100 µM |
| CCO[C@H]1O[C@@H]2OC3(C)CCC4[C@H](C)CCC([C@H]1C)[C@]42OO3 (some centres undefined) | > 100 µM | > 100 µM | > 100 µM | > 100 µM | > 100 µM | > 100 µM | > 100 µM | > 100 µM | > 100 µM | > 100 µM | > 100 µM | > 68.6 µM | > 100 µM | > 100 µM | > 100 µM | > 100 µM | > 100 µM | > 100 µM | > 100 µM | > 100 µM |
| COCN1C(=N)C(C(=O)OC(C)(C)C)=C2C=C(O)C=CC21C (centres undefined) | 19.6 µM | 20.7 µM | 75.2 µM | 19.9 µM | > 100 µM | 21.3 µM | 27.4 µM | > 100 µM | 44.9 µM | 13.5 µM | 26.6 µM | 32.5 µM | 19.3 µM | 29.5 µM | 33.6 µM | 31.9 µM | 28.6 µM | > 100 µM | 26.2 µM | 26.4 µM |
| COc1ccc(N/N=C/C2=CC(C)(C)C(C#N)(C#N)C(O)=C2C#N)cc1 | > 100 µM | > 100 µM | > 100 µM | > 100 µM | > 100 µM | > 100 µM | > 100 µM | > 100 µM | > 100 µM | > 100 µM | > 100 µM | > 100 µM | > 100 µM | > 100 µM | > 100 µM | > 100 µM | > 100 µM | 82.3 µM | > 100 µM | > 100 µM |
